In assay [1] the test system is HSF cell line. The experiment in a line: In vitro growth inhibitory activity on normal human skin fibroblast, SRB assay. Type of assay: cell-based. Here is the method: The anticancer activity of the synthesized compounds was measured in vitro using the Sulfo-Rhodamine-B (SRB) assay according to Skehan et al.. Briefly, HepG2 or HSF cells (obtained from Nawah Scientific) were inoculated in 96-well microtiter plates (10^4 cells/ well) for 24 h before treatment with the tested compounds to allow attachment of cells to the walls of the plates. Test compounds were dissolved in DMSO immediately before use and diluted to the appropriate volume just before addition to the cell culture. […] Three wells were prepared for each individual dose. Monolayer cells were incubated with the compounds for 48 h at 37 °C and in an atmosphere of 5% CO2. After 48 h, cells were fixed, washed and stained for 30 min with 0.4% (w/v) SRB dissolved in 1% acetic acid. Unbound dye was removed by four washes with 1% acetic acid and attached stain was recovered with Tris-EDTA buffer. Color intensity was measured in an ELISA reader. The relation between surviving fraction and drug concentration was plotted to get the survival curve.
For orientation: The SRB assay estimates cell density from bound dye.

Assay [2] concerns CCRF-CEM. Nature of the assay: NCI 60 one dose (10 μM) anticancer assay. Type of assay: cell-based. Particulars: Homo sapiens, 10 µM one dose, Leukemia, read-out: Growth Inhibition % CCRF-CEM. Put shortly:
(§1)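 Compounds selected by the NCI were screened in vitro at a single 10 μM concentration. The full 60-cell-line panel spans 9 cancer types. Values are percent growth inhibition of each cell line.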

Assay [3] relates to HL-60(TB). The experiment in a line: NCI 60 one dose (10 μM) anticancer assay. Type of assay: cell-based. To be noted: Homo sapiens, 10 µM one dose, Leukemia, read-out: Growth Inhibition % HL-60(TB). Put shortly:
as §1

The test system of assay [4] is HT29. Nature of the assay: NCI 60 one dose (10 μM) anticancer assay. Type of assay: cell-based. Particulars: Homo sapiens, HT-29; 10 µM one dose; Colon Cancer; read-out: Growth Inhibition % HT29. In outline:
as §1

Assay [5] concerns K-562. Nature of the assay: NCI 60 one dose (10 μM) anticancer assay. Particulars: Homo sapiens, K562; 10 µM one dose; Leukemia; read-out: Growth Inhibition % K-562. Type of assay: cell-based. In outline: as §1
Assay [6] relates to M14. The experiment in a line: NCI 60 one dose (10 μM) anticancer assay. Type of assay: cell-based. To be noted: Homo sapiens, 10 µM one dose, Melanoma, read-out: Growth Inhibition % M14. In outline:
as §1

In assay [7] the test system is MDA-MB-435. The experiment in a line: NCI 60 one dose (10 μM) anticancer assay. Type of assay: cell-based. Particulars: Homo sapiens, 10 µM one dose, Melanoma, read-out: Growth Inhibition % MDA-MB-435. Put shortly:
as §1

Assay [8] deals with MOLT-4. The experiment in a line: NCI 60 one dose (10 μM) anticancer assay. Type of assay: cell-based. To be noted: Homo sapiens, 10 µM one dose, Leukemia, read-out: Growth Inhibition % MOLT-4. Put shortly:
as §1

Assay [9] relates to OVCAR-8. The experiment in a line: NCI 60 one dose (10 μM) anticancer assay. Type of assay: cell-based. Particulars: Homo sapiens, 10 µM one dose, Ovarian Cancer, read-out: Growth Inhibition % OVCAR-8. In outline: as §1
In assay [10] the test system is PC-3. Nature of the assay: NCI 60 one dose (10 μM) anticancer assay. Type of assay: cell-based. Particulars: Homo sapiens, 10 µM one dose, Prostate Cancer, read-out: Growth Inhibition % PC-3. In outline: as §1
Assay [11] deals with RXF 393. Nature of the assay: NCI 60 one dose (10 μM) anticancer assay. Particulars: Homo sapiens, 10 µM one dose, Renal Cancer, read-out: Growth Inhibition % RXF 393. Type of assay: cell-based. Put shortly:
as §1

The test system of assay [12] is SNB-19. Nature of the assay: NCI 60 one dose (10 μM) anticancer assay. To be noted: Homo sapiens, 10 µM one dose, CNS Cancer, read-out: Growth Inhibition % SNB-19. Type of assay: cell-based. In outline: as §1
Assay [13] concerns SNB-75. The experiment in a line: NCI 60 one dose (10 μM) anticancer assay. Type of assay: cell-based. To be noted: Homo sapiens, 10 µM one dose, CNS Cancer, read-out: Growth Inhibition % SNB-75. Put shortly: as §1
Assay [14] concerns T-47D. Nature of the assay: NCI 60 one dose (10 μM) anticancer assay. Type of assay: cell-based. Particulars: Homo sapiens, T47D; 10 µM one dose; Breast Cancer; read-out: Growth Inhibition % T-47D. Put shortly: as §1
For assay [15], the system named is TK-10. Nature of the assay: NCI 60 one dose (10 μM) anticancer assay. To be noted: Homo sapiens, 10 µM one dose, Renal Cancer, read-out: Growth Inhibition % TK-10. Type of assay: cell-based. Put shortly:
as §1

Assay [16] has as its system U251. Nature of the assay: NCI 60 one dose (10 μM) anticancer assay. Type of assay: cell-based. Particulars: Homo sapiens, U-251; 10 µM one dose; CNS Cancer; read-out: Growth Inhibition % U251. Put shortly: as §1
Assay [17] has as its system UACC-62. Nature of the assay: NCI 60 one dose (10 μM) anticancer assay. Type of assay: cell-based. Particulars: Homo sapiens, 10 µM one dose, Melanoma, read-out: Growth Inhibition % UACC-62. Put shortly:
as §1

Assay [18] deals with PDGFR-β (Homo sapiens, UniProt P09619). Nature of the assay: Biochemical kinase assay.
Chain of PDGFR-β (P09619 33-1106): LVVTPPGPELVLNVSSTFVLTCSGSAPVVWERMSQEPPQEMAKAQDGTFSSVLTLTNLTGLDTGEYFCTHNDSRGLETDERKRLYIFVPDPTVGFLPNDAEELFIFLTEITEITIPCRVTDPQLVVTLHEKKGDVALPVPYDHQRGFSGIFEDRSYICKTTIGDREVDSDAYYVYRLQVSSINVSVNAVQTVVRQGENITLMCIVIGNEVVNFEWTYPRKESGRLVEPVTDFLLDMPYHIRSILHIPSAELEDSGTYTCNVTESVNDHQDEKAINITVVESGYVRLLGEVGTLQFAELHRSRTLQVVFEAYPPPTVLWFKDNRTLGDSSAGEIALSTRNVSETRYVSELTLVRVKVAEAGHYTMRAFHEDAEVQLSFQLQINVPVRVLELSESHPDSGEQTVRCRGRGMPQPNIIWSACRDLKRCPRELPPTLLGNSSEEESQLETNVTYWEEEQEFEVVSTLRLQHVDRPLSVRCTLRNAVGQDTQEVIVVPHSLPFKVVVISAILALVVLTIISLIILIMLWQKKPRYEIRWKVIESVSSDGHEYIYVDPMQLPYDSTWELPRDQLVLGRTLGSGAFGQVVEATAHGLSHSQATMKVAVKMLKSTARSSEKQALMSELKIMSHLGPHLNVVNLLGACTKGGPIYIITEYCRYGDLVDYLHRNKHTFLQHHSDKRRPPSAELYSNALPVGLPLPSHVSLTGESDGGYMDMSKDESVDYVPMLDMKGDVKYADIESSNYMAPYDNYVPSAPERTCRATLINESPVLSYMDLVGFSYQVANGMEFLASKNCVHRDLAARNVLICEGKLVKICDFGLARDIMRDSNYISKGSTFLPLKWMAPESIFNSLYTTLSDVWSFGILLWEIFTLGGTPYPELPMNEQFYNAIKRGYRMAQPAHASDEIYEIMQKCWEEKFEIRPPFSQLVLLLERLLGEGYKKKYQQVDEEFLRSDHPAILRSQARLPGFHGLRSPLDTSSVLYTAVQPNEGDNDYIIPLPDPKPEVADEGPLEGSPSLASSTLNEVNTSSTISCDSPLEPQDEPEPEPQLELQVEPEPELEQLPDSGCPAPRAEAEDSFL
Protocol: (§2) This assay was carried out using the VEGFR-2 kinase enzyme system or FGFR-1 kinase enzyme system and Kinase-Glo Plus luminescence kinase (Promega) kits according to the manufacturers´ protocols. This assay evaluated the activity of kinase by measuring the amount of ATP remaining in solution after a kinase reaction. The luminescent signal from the assay was related to the quantity of ATP available, which was inversely proportional to the amount of kinase activity. […] Subsequently, serial dilutions were carried out, and 5 µL of the dilution was added to a 50 µL reaction. The enzymatic reactions were performed at 30 °C for 45 minutes. […] After the enzymatic reaction, 50 µL of Kinase-Glo Plus Luminescence kinase assay solution was added to each reaction, and the plates were incubated for 15 minutes at room temperature. The luminescence signal was measured using a Tecan–spark multimode microplate reader. The difference between luminescence intensities in the absence of Kinase (Lut) and in the presence of Kinase (Luc) was defined as 100% activity (Lut − Luc). Using a luminescence signal (Lu) in the presence of the compound, % activity was calculated as: % activity = {(Lut − Lu)/(Lut − Luc)}×100%, where Lu = the luminescence intensity in the presence of the compound.
In assay [19] the target is VEGFR-2 (Homo sapiens, UniProt P35968). Nature of the assay: Biochemical kinase assay (Kinase-Glo Plus luminescence). For orientation: Kinase-Glo reads ATP consumption through a luciferase reaction.
Chain of VEGFR-2 (P35968 20-1356): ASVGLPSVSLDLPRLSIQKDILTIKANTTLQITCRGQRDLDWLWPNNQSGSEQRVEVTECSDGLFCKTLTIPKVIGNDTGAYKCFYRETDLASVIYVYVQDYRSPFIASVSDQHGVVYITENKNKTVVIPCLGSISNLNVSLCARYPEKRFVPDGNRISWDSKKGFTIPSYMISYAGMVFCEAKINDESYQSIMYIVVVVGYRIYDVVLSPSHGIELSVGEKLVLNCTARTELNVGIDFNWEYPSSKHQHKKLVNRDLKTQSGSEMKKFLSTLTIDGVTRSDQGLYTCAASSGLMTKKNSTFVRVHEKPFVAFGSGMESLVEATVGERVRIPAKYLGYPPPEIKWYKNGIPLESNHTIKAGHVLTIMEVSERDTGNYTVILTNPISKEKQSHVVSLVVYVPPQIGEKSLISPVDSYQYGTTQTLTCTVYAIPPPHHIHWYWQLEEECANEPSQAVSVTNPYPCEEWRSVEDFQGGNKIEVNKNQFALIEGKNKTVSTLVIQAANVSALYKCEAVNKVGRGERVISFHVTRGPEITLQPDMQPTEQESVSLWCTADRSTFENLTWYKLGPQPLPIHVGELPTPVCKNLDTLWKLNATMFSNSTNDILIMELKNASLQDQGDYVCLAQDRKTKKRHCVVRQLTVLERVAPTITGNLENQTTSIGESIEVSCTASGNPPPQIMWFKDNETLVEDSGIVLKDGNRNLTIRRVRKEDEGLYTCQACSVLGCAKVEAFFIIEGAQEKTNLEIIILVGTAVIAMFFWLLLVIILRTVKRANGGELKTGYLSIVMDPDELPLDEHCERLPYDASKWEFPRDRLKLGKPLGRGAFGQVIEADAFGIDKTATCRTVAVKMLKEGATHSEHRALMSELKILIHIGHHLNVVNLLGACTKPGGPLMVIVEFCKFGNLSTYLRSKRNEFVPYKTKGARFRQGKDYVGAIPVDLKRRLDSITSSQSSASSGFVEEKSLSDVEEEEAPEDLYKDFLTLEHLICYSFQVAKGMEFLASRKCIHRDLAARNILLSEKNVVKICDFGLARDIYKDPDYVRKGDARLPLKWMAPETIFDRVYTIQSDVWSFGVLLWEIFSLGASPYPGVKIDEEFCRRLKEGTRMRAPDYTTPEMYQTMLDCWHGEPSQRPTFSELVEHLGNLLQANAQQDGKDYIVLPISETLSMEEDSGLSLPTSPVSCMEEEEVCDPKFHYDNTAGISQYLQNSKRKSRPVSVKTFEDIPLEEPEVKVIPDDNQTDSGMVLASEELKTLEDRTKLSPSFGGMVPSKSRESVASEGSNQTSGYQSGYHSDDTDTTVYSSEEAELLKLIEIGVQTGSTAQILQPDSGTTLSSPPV
Protocol: This assay was carried out using the VEGFR-2 kinase enzyme system or FGFR-1 kinase enzyme system and Kinase-Glo Plus luminescence kinase (Promega) kits according to the manufacturers´ protocols. This assay evaluated the activity of kinase by measuring the amount of ATP remaining in solution after a kinase reaction. The luminescent signal from the assay was related to the quantity of ATP available, which was inversely proportional to the amount of kinase activity. […] Subsequently, serial dilutions were carried out, and 5 µL of the dilution was added to a 50 µL reaction. The enzymatic reactions were performed at 30 °C for 45 minutes. The 50 µL reaction mixture contained 40 mM Tris, pH 7.4, 10 mM MgCl2, 0.1 mg/mL BSA, 1 mM DTT, 0.2 mg/ml Poly (Glu, Tyr) substrate, 10 μM ATP and protein. After the enzymatic reaction, 50 µL of Kinase-Glo Plus Luminescence kinase assay solution was added to each reaction, and the plates were incubated for 15 minutes at room temperature. The luminescence signal was measured using a Tecan–spark multimode microplate reader. The difference between luminescence intensities in the absence of Kinase (Lut) and in the presence of Kinase (Luc) was defined as 100% activity (Lut − Luc). Using a luminescence signal (Lu) in the presence of the compound, % activity was calculated as: % activity = {(Lut − Lu)/(Lut − Luc)}×100%, where Lu = the luminescence intensity in the presence of the compound.
The target of assay [20] is FGFR-1 (Homo sapiens, UniProt P11362). The assay is described as above.
Chain of FGFR-1 (P11362 22-822): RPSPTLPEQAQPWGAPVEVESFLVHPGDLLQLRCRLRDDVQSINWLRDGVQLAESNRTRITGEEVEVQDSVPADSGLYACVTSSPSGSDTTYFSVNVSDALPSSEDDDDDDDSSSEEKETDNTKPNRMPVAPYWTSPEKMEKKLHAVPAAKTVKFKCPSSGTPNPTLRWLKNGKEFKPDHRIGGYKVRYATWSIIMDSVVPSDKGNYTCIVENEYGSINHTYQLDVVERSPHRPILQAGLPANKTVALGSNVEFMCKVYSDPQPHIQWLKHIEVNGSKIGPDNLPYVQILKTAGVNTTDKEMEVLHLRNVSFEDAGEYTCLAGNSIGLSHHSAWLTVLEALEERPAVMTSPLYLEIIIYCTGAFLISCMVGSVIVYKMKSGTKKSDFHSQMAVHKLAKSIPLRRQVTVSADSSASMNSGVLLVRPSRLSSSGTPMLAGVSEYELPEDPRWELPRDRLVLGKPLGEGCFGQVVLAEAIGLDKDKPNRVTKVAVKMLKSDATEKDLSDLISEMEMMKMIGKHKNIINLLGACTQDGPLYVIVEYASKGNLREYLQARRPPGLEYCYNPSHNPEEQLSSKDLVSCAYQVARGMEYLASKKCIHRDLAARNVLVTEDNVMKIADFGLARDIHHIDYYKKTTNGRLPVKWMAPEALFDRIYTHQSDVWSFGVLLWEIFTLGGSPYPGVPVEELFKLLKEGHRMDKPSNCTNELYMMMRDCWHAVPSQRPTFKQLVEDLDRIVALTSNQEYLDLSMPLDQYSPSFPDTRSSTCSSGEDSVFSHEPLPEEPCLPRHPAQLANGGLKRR
Protocol: as §2

The IC50 is the point on the concentration scale where inhibition reaches its midpoint. Usually inhibition stands for the share of the control response that was lost under treatment.

Regarding `CC(C)c1nc2ccccc2n1CC(=O)N/N=C/c1cccc(OCc2ccccc2)c1` [Compound 17a, (E)-N′-(3-(Benzyloxy)benzylidene)-2-(2-isopropyl-1H-benzo[d]imidazol-1-yl)acetohydrazide], the IC50 in assay [1] (Homo sapiens, HSF, SRB assay, 48 h, normal cell line, mean of three independent experiments) is 19.9 µM; in assay [18], 50 ± 2 nM; in assay [19], 110 ± 3 nM; in assay [20], 110 ± 4 nM. In assay [1] (from IC50 HSF vs IC50 HepG2), the “selectivity to the HepG2 cell line over the normal HSF cell line” value is reported as “about ten-fold higher selectivity”. For the same molecule, the inhibition at 10 µM in assay [2] was 41%; in assay [3], 32%; in assay [4], below 10%; in assay [5] it was 57%; in assay [6], 16%; in [7], below 10%. The inhibition at 10 µM in assay [8] is 50%; in assay [9], below 10%; in assay [10] it was 58%; in [11], below 10%; in assay [12], 22%; in [13] it was 15%. The inhibition at 10 µM in assay [14] is 32%; in assay [15], below 10%; in assay [16], below 10%; in assay [17] it was 41%.

The values are drawn from paper PMC7071059, “Targeting Receptor Tyrosine Kinase VEGFR-2 in Hepatocellular Cancer: Rational Design, Synthesis and Biological Evaluation of 1,2-Disubstituted Benzimidazoles” (Molecules, 2020).
